Source: patent publication US20150118179A1, “BIOCIDAL COMPOUNDS AND METHODS FOR USING SAME” (UNIVERSITY OF MANITOBA, priority 2012, published 2015)
Values joined by “and” are separate entries in the source; they are usually repeats but may differ in a detail not shown here. Equal entries are not always repeated.

Assays:
[1] = system: methicillin resistant Staphylococcus aureus (MRSA 40065); type: cell-based; conditions: Table 10, contact 1-60 min, inoculum 10^6 cfu/ml
Protocol: (§1) Pseudomonas aeruginosa (P. aeruginosa) (#73104, Gram-negative) and Staphylococcus aureus (MRSA) (#40065, Gram-positive) were used as the model microorganism to challenge the antibacterial function of the compounds. It should be noticed that both P. aeruginosa and MRSA are biosafety level 2 microorganisms and potentially biohazardous, therefore the following antibacterial assessments were carried out in a Biological Safety Level 2 cabinet and safety precautions were strictly followed.
(§2) Tryptone Soya agar plates were used as platforms for bacterial cell growth and were prepared following the instructions on the bottle (CM 0131, OXOID). The prepared agar was kept at 65° C. after being autoclaved and the resulting agar plates were stored in fridge at 3-4° C. All glassware and related materials were subjected to autoclave or disinfection with 70% ethanol prior to use.
(§3) Several colonies of each bacteria type were suspended in broth solutions (cation-supplemented Mueller-Hinton broth for P. aeruginosa and tryptic soy broth for MRSA) whose concentrations were equivalent to a 0.5 McFarland standard (1×10^8 cfu/ml). This suspension was then diluted 1:100 and 20 μL of the diluted suspension was further diluted in 60 ml of cation-supplemented Mueller-Hinton broth or tryptic soy broth. Then the prepared bacteria inoculums were incubated overnight at 37° C. to obtain logarithmic-phase cultures. For each microbial study, 0.2 ml (0.02 ml for P. aeruginosa) of the cell suspension was diluted in 19.8 mL (19.98 ml for P. aeruginosa) of phosphate-buffered Saline (PBS, 0.1 M Sodium phosphate monobasic, 0.1 M Sodium phosphate dibasic, pH 7.4) to give a cell concentration of 10^6-10^7 cfu/mL (10^5 cfu/ml for P. aeruginosa). 30 μL of each synthesized compound solution (0.28 N stock solution) were added into the cell suspension to achieve a [Cl^+] of 15 ppm and start timing instantly. The mixture was vortexed several times during the reaction. After contact for the desired time intervals, 1.0 ml cell suspension was withdrawn and added to 1.0 ml of 0.02 N sodium thiosulfate and/or Letheen (1% lecithin, 10% peptone and 0.5% tween 80 dissolved in PBS at pH 7.4) to quench the bactericidal effect. The quenched suspension was then serially diluted (10 times less concentrated than the previous one) and 100 μL of each dilution was placed onto agar plates. The same procedure was applied to the blanks as controls with the same matrices but with no synthesized compounds added. Bacterial colonies on the agar plates were enumerated after being incubated at 37° C. for 22 hours.
(§4) Percentage reduction of bacteria (%)=(A−B)/A×100
(§5) Where A is the number of bacterial colonies in the control (cfu/mL), and B is the number of bacteria colonies under the effect of the synthesized compounds.

P. aeruginosa (73104) = assay: Antibacterial assessment in PBS suspension (Example 19); type: cell-based, Pseudomonas aeruginosa; conditions: Table 10, contact 3-60 min, inoculum 10^5 cfu/ml
Protocol: as §1, §2, §3, §4, §5

P. aeruginosa 73104 = assay: Biocidal activity in bacterial suspension (Example 18); type: cell-based, Pseudomonas aeruginosa; conditions: 15 ppm [Cl+]; for Reduction of P. aeruginosa: 10^6 cfu/mL P. aeruginosa, within 60 min of contact
Protocol: Logarithmic-phase cultures of P. aeruginosa were prepared by initially suspending several colonies in cation-supplemented Mueller-Hinton broth (Oxoid, Nepean, Ontario, Canada) at a density equivalent to a 0.5 McFarland standard (1×10^8 cfu/mL). This suspension was then diluted 1:100 and 20 μL of the diluted suspension was further diluted in 60 mL of cation-supplemented Mueller-Hinton broth. Following overnight growth at 37° C., suspensions were diluted 1:[…] to get inoculums of approximately 1×10^6 or 1×10^5 cfu/mL.
(§6) Biocidal activity of synthetic compounds was completed as followed. To 20 mL of bacterial suspension (10^5 or 10^6 cfu/mL) in a centrifuge tube was added 30 μL solution of synthetic compounds (0.282 M stock solution) to achieve a final [Cl^+] of 15 ppm. Timing of the exposure to the disinfectant was started immediately with the addition of the synthetic compound. After predetermined contact time, 1.0 mL aliquots were withdrawn and added to an equal volume of 0.02 N sodium thiosulfate in PBS (0.1 M, pH 7.4). The quenched suspension was serially diluted and 100 μL of each resulting dilution was placed onto nutrient agar plates. After being incubated at 37° C. for 24 hours, the viable bacterial colonies on the plates were counted. Bacterial reduction was reported according to:
as §4
(§7) Log reduction=Log(A/B) (4)
(§8) where A is the number of bacteria in the starting inoculum (cfu/mL), and B is the number of bacteria retrieved from synthetic compounds (cfu/mL).

CA-MRSA 40065 = assay: as above; type: cell-based, Staphylococcus aureus; conditions: 15 ppm [Cl+]
Protocol: Logarithmic-phase cultures of MRSA were prepared using similar way except TSA broth was used instead.
as §6, §4, §7, §8

[2] = Table 3, contact 3 min, inoculum 2.26 × 10^5 CFU/mL
[3] = Table 3, contact 5 min, inoculum 2.26 × 10^5 CFU/mL
[4] = Table 3, contact 10 min, inoculum 2.26 × 10^5 CFU/mL
[5] = Table 3, contact 60 min, inoculum 2.26 × 10^5 CFU/mL
[6] = Table 3, contact 90 min, inoculum 2.26 × 10^5 CFU/mL
[7] = Table 4, contact 3 min, inoculum 2.26-2.98 × 10^5 CFU/mL
[8] = Table 4, contact 5 min, inoculum 2.26-2.98 × 10^5 CFU/mL
[9] = Table 4, contact 10 min, inoculum 2.26-2.98 × 10^5 CFU/mL
[10] = Table 4, contact 20 min, inoculum 2.26-2.98 × 10^5 CFU/mL
[11] = Table 4, contact 30 min, inoculum 2.26-2.98 × 10^5 CFU/mL
[12] = Table 4, contact 45 min, inoculum 2.26-2.98 × 10^5 CFU/mL
[13] = Table 4, contact 60 min, inoculum 2.26-2.98 × 10^5 CFU/mL
[14] = Table 2, contact 3 min, inoculum 1.57-1.75 × 10^6 CFU/mL
[15] = Table 2, contact 5 min, inoculum 1.57-1.75 × 10^6 CFU/mL
[16] = Table 2, contact 10 min, inoculum 1.57-1.75 × 10^6 CFU/mL
[17] = Table 2, contact 60 min, inoculum 1.57-1.75 × 10^6 CFU/mL
[18] = Table 2, contact 1 min, inoculum 1.57-1.75 × 10^6 CFU/mL
[19] = Table 5, contact 3 min, inoculum 2.83 × 10^6 cfu/mL
[20] = Table 5, contact 5 min, inoculum 2.83 × 10^6 cfu/mL
[21] = Table 5, contact 10 min, inoculum 2.83 × 10^6 cfu/mL
[22] = Table 5, contact 20 min, inoculum 2.83 × 10^6 cfu/mL
[23] = Table 5, contact 30 min, inoculum 2.83 × 10^6 cfu/mL
[24] = Table 5, contact 45 min, inoculum 2.83 × 10^6 cfu/mL
[25] = Table 5, contact 60 min, inoculum 2.83 × 10^6 cfu/mL

Compound	Reduction of P. aeruginosa (P. aeruginosa 73104)	Bacteria reduction % (P. aeruginosa 73104; [2]) [%]	Bacteria reduction % (P. aeruginosa 73104; [3]) [%]	Bacteria reduction Log10 (P. aeruginosa 73104; [4]) [Log10]	Bacteria reduction % (P. aeruginosa 73104; [5]) [%]	Bacteria reduction Log10 (P. aeruginosa 73104; [5]) [Log10]	Bacteria reduction % (P. aeruginosa 73104; [7]) [%]	Bacteria reduction Log (P. aeruginosa 73104; [7]) [Log]	Bacteria reduction % (P. aeruginosa 73104; [8]) [%]	Bacteria reduction Log (P. aeruginosa 73104; [8]) [Log]	Bacteria reduction % (P. aeruginosa 73104; [9]) [%]	Bacteria reduction Log (P. aeruginosa 73104; [9]) [Log]	Bacteria reduction % (P. aeruginosa 73104; [10]) [%]	Bacteria reduction Log (P. aeruginosa 73104; [10]) [Log]	Bacteria reduction % (P. aeruginosa 73104; [11]) [%]	Bacteria reduction Log (P. aeruginosa 73104; [11]) [Log]	Bacteria reduction % (P. aeruginosa 73104; [12]) [%]	Bacteria reduction Log (P. aeruginosa 73104; [12]) [Log]	Bacteria reduction % (P. aeruginosa 73104; [13]) [%]	Bacteria reduction Log (P. aeruginosa 73104; [13]) [Log]	other results
CCCCCC[N+](C)(C)CCCN1C(=O)NC(C)(C)C1=O [Compound 5]	–	–	–	–	–	–	–	–	–	–	–	–	–	–	–	–	–	–	–	–	Bactericidal effect (bacteria reduction at various contact time) [1]: No bactericidal effect; Bactericidal effect (bacteria reduction at various contact time) (P. aeruginosa (73104)): No bactericidal effect
CC1(C)C(=O)N(CCC[N+](C)(C)CC[N+](C)(C)C)C(=O)N1Cl.[Cl-].[Cl-] [Compound 12]	cannot bring any significant reduction	39.8 ± 10.0	44.7 ± 1.9	0.43 ± 0.01	100	5.35	39.8	0.22	44.7	0.26	62.8	0.43	99.70	2.50	100	4.82	100	5.47	100	5.47	Bacteria reduction % (P. aeruginosa 73104; [6]): 100%; Bacteria reduction Log10 (P. aeruginosa 73104; [6]): 5.35 Log10; Bacteria reduction % (CA-MRSA 40065; [14]): 88.0%; Bacteria reduction Log10 (CA-MRSA 40065; [14]): 0.92 Log10; Bacteria reduction % (CA-MRSA 40065; [15]): 92.3%; Bacteria reduction Log10 (CA-MRSA 40065; [15]): 0.92 Log10; Bacteria reduction % (CA-MRSA 40065; [16]): 94.2%; Bacteria reduction Log10 (CA-MRSA 40065; [16]): 1.24 Log10; Bacteria reduction % (CA-MRSA 40065; [17]): 99.5%; Bacteria reduction Log10 (CA-MRSA 40065; [17]): 2.31 Log10
CC1(C)C(=O)N(CCC[N+](C)(C)CCCN2C(=O)N(Cl)C(C)(C)C2=O)C(=O)N1Cl.[Cl-] [Compound 14]	cannot bring any significant reduction	22.6 ± 4.4	24.8 ± 10.0	0.14 ± 0.07	100	5.35	22.6	0.11	24.8	0.13	26.6	0.14	70.8	–	99.96	3.39	100	5.47	100	5.47	Bacteria reduction % (P. aeruginosa 73104; [4]): 26.6% and 26.6 ± 12.5%; Bacteria reduction % (P. aeruginosa 73104; [6]): 100%; Bacteria reduction Log10 (P. aeruginosa 73104; [6]): 5.35 Log10; Bacteria reduction % (CA-MRSA 40065; [18]): 85.8%; Bacteria reduction Log10 (CA-MRSA 40065; [18]): 0.85 Log10; Bacteria reduction % (CA-MRSA 40065; [14]): 79.1%; Bacteria reduction Log10 (CA-MRSA 40065; [14]): 0.68 Log10; Bacteria reduction % (CA-MRSA 40065; [15]): 64.3%; Bacteria reduction Log10 (CA-MRSA 40065; [15]): 0.45 Log10; Bacteria reduction % (CA-MRSA 40065; [16]): 91.9%; Bacteria reduction Log10 (CA-MRSA 40065; [16]): 1.09 Log10; Bacteria reduction % (CA-MRSA 40065; [17]): 99.5%; Bacteria reduction Log10 (CA-MRSA 40065; [17]): 2.32 Log10
CCCCCCCCCCCC[N+](C)(C)CCn1cc(C[N+](C)(C)CCCN2C(=O)NC(C)(C)C2=O)nn1 [Compound 15]	–	–	–	–	–	–	75.7	0.74	98.4	1.88	99.9	3.02	99.97	4.32	100	5.47	100	5.47	100	5.47	Bacteria reduction % (CA-MRSA 40065; [19]): 86.9%; Bacteria reduction % (CA-MRSA 40065; [20]): 79.5%; Bacteria reduction Log (CA-MRSA 40065; [20]): 0.69 Log; Bacteria reduction % (CA-MRSA 40065; [21]): 85.1%; Bacteria reduction Log (CA-MRSA 40065; [21]): 0.83 Log; Bacteria reduction % (CA-MRSA 40065; [22]): 67.8%; Bacteria reduction Log (CA-MRSA 40065; [22]): 0.49 Log; Bacteria reduction % (CA-MRSA 40065; [23]): 79.8%; Bacteria reduction Log (CA-MRSA 40065; [23]): 0.70 Log; Bacteria reduction % (CA-MRSA 40065; [24]): 92.6%; Bacteria reduction Log (CA-MRSA 40065; [24]): 1.13 Log; Bacteria reduction % (CA-MRSA 40065; [25]): 87.3%; Bacteria reduction Log (CA-MRSA 40065; [25]): 0.89 Log; Bacteria reduction % (CA-MRSA 40065; independent of contact duration (3-60 minutes)): around 80%
CCCCCCCCCCCC[N+](C)(C)CCn1cc(C[N+](C)(C)CCCN2C(=O)N(Cl)C(C)(C)C2=O)nn1 [Compound 16]	–	–	–	–	–	–	99.6	2.62	99.97	4.32	100	5.47	100	5.47	100	5.47	100	5.47	100	5.47	Bacteria reduction % (CA-MRSA 40065; [19]): 84.4%; Bacteria reduction % (CA-MRSA 40065; [20]): 93.4%; Bacteria reduction Log (CA-MRSA 40065; [20]): > 1 Log and 1.18 Log; Bacteria reduction % (CA-MRSA 40065; [21]): 99.8%; Bacteria reduction Log (CA-MRSA 40065; [21]): 2.77 Log; Bacteria reduction % (CA-MRSA 40065; [22]): 100%; Bacteria reduction Log (CA-MRSA 40065; [22]): 6.45 Log; Bacteria reduction % (CA-MRSA 40065; [23]): 100%; Bacteria reduction Log (CA-MRSA 40065; [23]): 6.45 Log; Bacteria reduction % (CA-MRSA 40065; [24]): 100%; Bacteria reduction Log (CA-MRSA 40065; [24]): 6.45 Log; Bacteria reduction % (CA-MRSA 40065; [25]): 100%; Bacteria reduction Log (CA-MRSA 40065; [25]): 6.45 Log
